Read-outs that look alike come from different tables or passages of the source.
Legend:
[1] = target: T1, QuantiLum Luciferase (firefly luciferase) (Photinus pyralis, UniProt P08659); experiment: ATP titration of luciferase reactions with luciferin and fluoroluciferins; assay type: biochemical
T1 construct: purchased Promega Corporation El 70
Procedure: AU compounds except 5’-fluoroluciferin and DTT were purchased from Sigma Chemical. To some of this reagent 5 mM ATP (Amersham/Invitrogen) was added, then serially diluted by half-logs to 0.05 mM. Reactions were initiated by adding equal volumes (0.1 ml) of reagent and DMEM medium (Gibco/Invitrogen) containing 0.1% Prionex® (Pentapharm) and 1.4×10-5 mg/ml QuantiLum™ Luciferase (Promega Corporation).
For ATP titrations for 7′-fluoroluciferin, reagent was created containing 200 mM HEPES, 200 mM PIPES, 1 mM CDTA, 0.5% Tergitol NP-9, 0.03% Benzyl dodecyldimethyl ammonium bromide, 30 mM thiourea, 10 mM magnesium sulfate, and 0.15 mM 7′-fluoroluciferin. This solution was separated into 3 parts and pH of the reagents were 7.4, 7.2 and 6.7. To some of this reagent, 10 mM ATP (Amersham/Invitrogen) was added. The ATP was serially diluted by quarter-logs from 10 mM to 0.32 mM.
Reactions were initiated by adding equal volumes (0.03 ml) of reagent and DMEM medium (Gibco/Invitrogen) containing 0.1% Prionex® (Pentapharm) and 1.4×10-5 mg/ml QuantiLum™ Luciferase (Promega Corporation).
Luminescence was measured for 0.5 seconds per well using Berthold Orion luminometer.

[2] = target: T1, QuantiLum Luciferase (firefly luciferase); experiment: pH dependence of firefly luciferase signal with luciferin or 5′-fluoroluciferin; assay type: biochemical
Procedure: Aliquots of these solutions were then placed into tubes and buffers were added to 80 mM.
Luminescent reactions were initiated by combining 100 μl of the luciferase-containing solution and 100 μl of the luciferase detection reagents. Luminescence was integrated over 1 second per sample using the Veritas plate luminometer (Turner Bio Systems). N=3 for each result.

[3] = target: T1, QuantiLum Luciferase (firefly luciferase); experiment: Luminescence spectra of fluoroluciferins; assay type: biochemical; details: pH 7.4
Procedure: All compounds except fluoroluciferin and ATP were purchased from Sigma Chemical. ATP was purchased from Amersham/Invitrogen.
Spectra were measured using 0.5s integration with 1 nm increments on a Spex Fluorolog.

porcine esterase = experiment: Two-step luminescent carboxylesterase assay with D-luciferin esters; assay type: biochemical; details: two step luminescent assay format
equine GST = experiment: Two-step luminescent GST assay with equine GST; assay type: biochemical; details: for Raw Data light reading: Equine GST, 2 mM glutathione
Procedure: (§1) The derivative was tested in a two step format. For the first step, the derivative was added to a mixture with one of three GSTs with or without glutathione. At different times after the reaction was initiated, a portion was removed and mixed with a luciferase reaction mixture.
(§2) S. japonica GST: 1 vial with 3 mg GST (Part G5663, Sigma Chemical Company) was dissolved in 500 μl of 10 mM BisTris, pH 6.6.
(§3) The reactions (Table 1) were assembled by first adding the water and 1 M BisTris solutions in individual 0.5 ml microfuge tubes, then adding the other components except for the GST #3 solution. Finally, the GST #3 (FIG. 12) solution was added to the reactions, the resulting solution was mixed, and the time of addition noted.
(§4) After assembly, the enzyme stock solutions were diluted 1:10 into 10 mM HEPES, pH 7.5 and the following additions were made to the reactions.
(§5) The reactions were allowed to proceed for 30 minutes at room temperature and then 100 μl of P450 Glo reagent was added to each reaction and the light produced by the subsequent solution was measured on a Veritas luminometer.

S. japonica GST = target: T2, S. japonica GST (Schistosoma japonicum, UniProt P08515); assay type: biochemical; details: for Light Reading: 45 min; for Raw Data light reading: S. japonica GST, 2 mM glutathione
T2 construct: purchased Sigma Chemical Company G5663
T2 sequence (P08515 whole entry): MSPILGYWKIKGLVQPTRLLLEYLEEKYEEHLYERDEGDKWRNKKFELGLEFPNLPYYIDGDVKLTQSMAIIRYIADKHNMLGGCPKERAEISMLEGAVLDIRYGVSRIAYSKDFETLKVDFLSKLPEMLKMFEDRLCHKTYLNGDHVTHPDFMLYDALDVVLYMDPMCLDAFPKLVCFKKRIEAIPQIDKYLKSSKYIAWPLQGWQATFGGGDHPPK
Procedure: as §1, §2, §3
Buffer stock solutions (1 M) of BisTris at pH 6.5, HEPES, pH 7.0, 7.5 and 8.0 and Tricine pH 8.5 were prepared by dissolving solid reagent obtained from Sigma Chemical Corporation and adjusting the pH to the desired value.
The GST #3 addition was performed last and the solutions were mixed immediately after addition of GST #3. […] After mixing, the light produced by the solution was measured using a Turner TD 20/20 luminometer.
The stock of S. japonica GST used in Example IA was diluted to 1 mg/ml with 10 mM BisTris pH 6.5.
The reactions were initiated by addition of GST #3 and mixing. […]

[4] = Non-enzymatic conversion of luciferin derivative by glutathione (no GST) and buffer controls; assay type: biochemical; details: for Light Output: Table 4 reaction 1: BisTris pH 6.5, no glutathione, time post mixing in column head; for Light Reading: no enzyme, 45 min; for Glutathione Signal: glutathione alone minus buffer
Procedure: Buffer stock solutions (1 M) of BisTris at pH 6.5, HEPES, pH 7.0, 7.5 and 8.0 and Tricine pH 8.5 were prepared by dissolving solid reagent obtained from Sigma Chemical Corporation and adjusting the pH to the desired value. […]

CYP2D6 = target: T3, CYP2D6 (Homo sapiens, UniProt P10635); experiment: CYP2D6 inhibition assay with luciferin-6-methylether ethylene glycol ester; assay type: biochemical; details: substrate luciferin-6-methylether ethylene glycol ester
T3 construct: purchased Discovery Labware (BD/Gentest); host or cells: insect cell expression system (membrane fractions)
T3 sequence (P10635 whole entry): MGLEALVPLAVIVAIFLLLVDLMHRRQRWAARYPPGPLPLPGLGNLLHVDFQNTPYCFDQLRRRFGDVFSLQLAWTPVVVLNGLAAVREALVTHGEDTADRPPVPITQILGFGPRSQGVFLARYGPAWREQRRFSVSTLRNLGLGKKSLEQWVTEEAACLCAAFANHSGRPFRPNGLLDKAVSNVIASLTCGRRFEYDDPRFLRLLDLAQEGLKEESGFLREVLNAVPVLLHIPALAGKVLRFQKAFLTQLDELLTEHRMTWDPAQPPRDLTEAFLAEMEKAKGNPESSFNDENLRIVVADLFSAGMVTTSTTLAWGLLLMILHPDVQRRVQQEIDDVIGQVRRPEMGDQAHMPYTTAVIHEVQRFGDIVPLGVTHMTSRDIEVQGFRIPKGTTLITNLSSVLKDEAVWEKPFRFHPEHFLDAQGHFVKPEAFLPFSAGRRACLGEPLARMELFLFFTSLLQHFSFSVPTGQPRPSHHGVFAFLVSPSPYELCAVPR

GST A1-1 = GST A1-1 (Homo sapiens, UniProt P08263); details: for Raw Data light reading: GST A1-1, 2 mM glutathione
Chain of GST A1-1 (P08263 whole entry): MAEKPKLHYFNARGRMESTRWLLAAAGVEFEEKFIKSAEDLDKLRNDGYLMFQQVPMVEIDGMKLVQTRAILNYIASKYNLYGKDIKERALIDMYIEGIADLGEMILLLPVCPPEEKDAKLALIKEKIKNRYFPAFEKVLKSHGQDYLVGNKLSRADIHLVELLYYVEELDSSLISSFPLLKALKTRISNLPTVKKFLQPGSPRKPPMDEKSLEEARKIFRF
Procedure: Enzyme and glutathione stock solutions are described in Example IA.
as §4
GST A1-1 (Sigma) is an enzyme found in a few body tissues, including kidney, intestine, lung and liver. GST M1-1 (Sigma) is a type b allelic variant, which corresponds to GST psi purified from human liver.
as §5

GST M1-1 = target: T4, GST M1-1 (Homo sapiens, UniProt P09488, K173N); experiment: Luminescent GST assay with GST M1-1; assay type: biochemical; details: for Raw Data light reading: GST M1-1, 2 mM glutathione
T4 construct: purchased Sigma
T4 sequence (P09488 1-218 K173N): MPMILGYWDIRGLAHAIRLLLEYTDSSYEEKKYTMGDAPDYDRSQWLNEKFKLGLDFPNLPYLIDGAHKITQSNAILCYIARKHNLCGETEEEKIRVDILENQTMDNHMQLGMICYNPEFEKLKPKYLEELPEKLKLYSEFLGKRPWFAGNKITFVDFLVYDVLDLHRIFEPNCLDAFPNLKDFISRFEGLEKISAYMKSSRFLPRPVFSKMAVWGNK

T1 sequence (P08659 whole entry): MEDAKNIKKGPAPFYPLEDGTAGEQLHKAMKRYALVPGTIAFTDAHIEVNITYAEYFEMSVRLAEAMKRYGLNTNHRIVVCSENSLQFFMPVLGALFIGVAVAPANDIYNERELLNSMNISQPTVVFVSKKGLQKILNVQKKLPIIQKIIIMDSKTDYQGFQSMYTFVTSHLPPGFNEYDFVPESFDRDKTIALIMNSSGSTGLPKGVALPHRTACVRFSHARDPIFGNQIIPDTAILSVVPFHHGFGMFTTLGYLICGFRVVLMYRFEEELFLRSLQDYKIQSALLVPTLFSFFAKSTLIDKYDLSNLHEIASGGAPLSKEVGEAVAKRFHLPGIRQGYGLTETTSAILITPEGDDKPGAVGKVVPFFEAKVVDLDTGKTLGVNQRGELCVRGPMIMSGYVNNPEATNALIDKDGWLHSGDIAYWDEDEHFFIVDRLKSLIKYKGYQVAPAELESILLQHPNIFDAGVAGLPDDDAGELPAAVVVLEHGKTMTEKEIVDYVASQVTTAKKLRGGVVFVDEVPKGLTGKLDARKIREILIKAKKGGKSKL

O=C(O)[C@H]1CSC(c2nc3cc(F)c(O)cc3s2)=N1 [5′-fluoroluciferin]
ATP requirement of luciferase reaction [1]: saturated with ATP at a higher concentration than the reaction using luciferin | Relative Luminescence (% of 8.3 Luciferin) ([2]; pH 6.900, MOPS): 19% | Relative Luminescence (% of 8.3 Luciferin) ([2]; pH 7.133, MOPS): 22% | Relative Luminescence (% of 8.3 Luciferin) ([2]; pH 7.296, MOPS): 23% | Relative Luminescence (% of 8.3 Luciferin) ([2]; pH 7.303, HEPES): 22% | Relative Luminescence (% of 8.3 Luciferin) ([2]; pH 7.499, MOPS): 23% | Relative Luminescence (% of 8.3 Luciferin) ([2]; pH 7.521, HEPES): 25% | Relative Luminescence (% of 8.3 Luciferin) ([2]; pH 7.673, Tricine): 24% | Relative Luminescence (% of 8.3 Luciferin) ([2]; pH 7.720, HEPES): 27% | Relative Luminescence (% of 8.3 Luciferin) ([2]; pH 7.883, Tricine): 24% | Relative Luminescence (% of 8.3 Luciferin) ([2]; pH 7.892, HEPES): 26% | Relative Luminescence (% of 8.3 Luciferin) ([2]; pH 8.100, Tricine): 24% | Relative Luminescence (% of 8.3 Luciferin) ([2]; pH 8.327, Tricine): 22% | blue shift of luminescence λmax from regular luciferin [3]: approximately 25 nm | blue shift of luminescence λmax from regular luciferin ([3]; listed as 5′ fluoroluciferin): about 10 nm

CCOC(=O)[C@H]1CSC(c2nc3ccc(O)cc3s2)=N1 [D-luciferin ethyl ester]
carboxylesterase substrate (porcine esterase): effective in this format

COC(=O)[C@H]1CSC(c2nc3ccc(O)cc3s2)=N1 [D-luciferin methyl ester]
carboxylesterase substrate (porcine esterase): effective in this format

O=C(OCc1cccnc1)[C@H]1CSC(c2nc3ccc(O)cc3s2)=N1 [D-luciferin picolinyl ester]
carboxylesterase substrate (porcine esterase): effective in this format

O=C(O)[C@H]1CSC(c2ccc3cc(Oc4ccc(C(F)(F)F)cc4[N+](=O)[O-])ccc3n2)=N1 [GST #3, 6-(2-nitro-4-trifluoromethyl-phenoxy)quinolinyl-luciferin]
GST preference (equine GST; light generating reaction): better substrate for equine GST in a light generating reaction than GST M1-1 and GST A1-1 | Light Reading (S. japonica GST; reaction 2: pH 7.5, 50 μl 10 mM GSH, 10 μl S. japonica GST): 61.58 | Light Reading (S. japonica GST; reaction 4: pH 7.5, 30 μl 10 mM GSH, enzyme): 55.18 | Light Reading (S. japonica GST; reaction 6: pH 7.5, 10 μl 10 mM GSH, enzyme): 52.23 | Light Reading (S. japonica GST; reaction 8: pH 8.0, 50 μl 10 mM GSH, enzyme): 152.3 | Light Reading (S. japonica GST; reaction 10: pH 8.0, 30 μl 10 mM GSH, enzyme): 135.6 | Light Reading (S. japonica GST; reaction 12: pH 8.0, 10 μl 10 mM GSH, enzyme): 97.47 | Light Reading (S. japonica GST; reaction 14: pH 8.5, 50 μl 10 mM GSH, enzyme): 532.4 | Light Reading (S. japonica GST; reaction 16: pH 8.5, 30 μl 10 mM GSH, enzyme): 416.7 | Light Reading (S. japonica GST; reaction 18: pH 8.5, 10 μl 10 mM GSH, enzyme): 267.3 | Light Output ([4]; 20 minutes after mixing): 0.976 | Light Output ([4]; 40 minutes after mixing): 1.099 | Light Output ([4]; at time of mixing): 1.01 | Light Reading ([4]; Table 6 reaction 1: pH 7.5, 50 μl 10 mM GSH): 26.3 | Light Reading ([4]; reaction 3: pH 7.5, 30 μl 10 mM GSH): 19.21 | Light Reading ([4]; reaction 5: pH 7.5, 10 μl 10 mM GSH): 10.73 | Light Reading ([4]; reaction 7: pH 8.0, 50 μl 10 mM GSH): 65.98 | Light Reading ([4]; reaction 9: pH 8.0, 30 μl 10 mM GSH): 48.41 | Light Reading ([4]; reaction 11: pH 8.0, 10 μl 10 mM GSH): 22.52 | Light Reading ([4]; reaction 13: pH 8.5, 50 μl 10 mM GSH): 295.2 | Light Reading ([4]; reaction 15: pH 8.5, 30 μl 10 mM GSH): 199.4 | Light Reading ([4]; reaction 17: pH 8.5, 10 μl 10 mM GSH): 97.89

CC(NC(C)(C)C)C(=O)c1cccc(Cl)c1 (centres unmarked) [bupropion]
IC50 (CYP2D6): 33 µM

Clc1ccccc1C(c1ccccc1)(c1ccccc1)n1ccnc1 [clotrimazole]
IC50 (CYP2D6): 22.6 µM

CC(C)N(CCC(C(N)=O)(c1ccccc1)c1ccccn1)C(C)C (centres unmarked) [disopyramide]
IC50 (CYP2D6): 220 µM

Acetyl Luciferin
Raw Data light reading (GST A1-1; 2 mM AL): 42,725 | Raw Data light reading (GST A1-1; 20 mM AL): 365,770 | Net Enzyme Signal (GST A1-1; Net 2 mM AL): 7,519 | Net Enzyme Signal (GST A1-1; Net 20 mM AL): 34,854 | Raw Data light reading (equine GST; 2 mM AL): 39,036 | Raw Data light reading (equine GST; 20 mM AL): 361,356 | Net Enzyme Signal (equine GST; Net 2 mM AL): 3,830 | Net Enzyme Signal (equine GST; Net 20 mM AL): 30,440 | Net Enzyme Signal (S. japonica GST; Net 2 mM AL): 91,082 | Net Enzyme Signal (S. japonica GST; Net 20 mM AL): 902,203 | Raw Data light reading (S. japonica GST; 2 mM AL): 126,288 | Raw Data light reading (S. japonica GST; 20 mM AL): 1,233,119 | Raw Data light reading (GST M1-1; 2 mM AL): 42,867 | Raw Data light reading (GST M1-1; 20 mM AL): 419,400 | Net Enzyme Signal (GST M1-1; Net 2 mM AL): 7,661 | Net Enzyme Signal (GST M1-1; Net 20 mM AL): 88,484 | Glutathione Signal ([4]; 2 mM AL): 14,557 | Glutathione Signal ([4]; 20 mM AL): 147,064 | Raw Data light reading ([4]; Buffer Alone, 2 mM AL, pH 7.5, 30 min): 20,649 | Raw Data light reading ([4]; Buffer Alone, 20 mM AL, pH 7.5, 30 min): 183,852 | Raw Data light reading ([4]; Glutathione Alone (2 mM), 2 mM AL): 35,206 | Raw Data light reading ([4]; Glutathione Alone (2 mM), 20 mM AL): 330,916
